Test results as given in patent US20130296393A1, “METHOD FOR CONTROLLING CLUBROOT” (ISHIHARA SANGYO KAISHA, LTD., priority 2011, published 2013).

Tests used:
Type in all cases: in vivo
[1] = system: Plasmodiophora brassicae; experiment: Cabbage clubroot control test, pot test (Example 1 / Comparative Example 1); set-up: key to Disease control value: {1−(treatment severity/control severity)}×100; key to Disease severity: Σ(plants×index 0-4)/(plants×4)×100; 0 = no clubroot; conditions: for Disease control value / Disease severity: 60 days after settled planting
Procedure: A chemical solution for spraying at 50 ppm was prepared by diluting 9.4% w/w cyazofamid (Ranman [trade name] flowable, manufactured by Ishihara Sangyo Kaisha Ltd.) with water.
A spore suspension of Plasmodiophora brassicae (fungus density: 1×10^5 fungi/g dry soil) was inoculated into a sterilization soil adjusted to pH of 6.2 with Sandoseto and after introducing the resulting test soil into a 1/5000 a pot, a cabbage (variety: Okina) seedling grown in a cell seedling tray (128 cells/seedling box) was settled-planted by establishing five plantings for each test section having a size of 0.02 m^2 per one plant. Just after the settled planting, 3 days, 7 days, 10 days and 14 days after the settled planting, the chemical solution for spraying prepared in (1) was applied by soil drench at a ratio of 250 ml/plant. Sixty days after the settled planting, the number of each index of clubroot adhesion to the root was investigated. For comparison, the same test was carried out on a control section where a soil drench treatment with the chemical solution for spraying was not applied.
The test was carried out by the same method as in Example 1(2) except that in place of the soil drench treatment with the chemical solution for spraying, 30 kg/10 a of 0.3% flusulfamide (dust formulation of Nebijin [trade name], manufactured by Mitsui Chemicals Agro, Inc.) was applied to the test soil just before settled planting and incorporated into the soil by means of a small mixer (interfusion depth: 15 cm).
In Example 1 and Comparative Example 1, the adhesion of clubroot was investigated by pulling out the root of cabbage. The adhesion of clubroot was investigated by calculating the disease severity using the following formula. In addition, the weight of cabbage in the aerial part was measured. Furthermore, the test result was shown by the average value of five plantings.
(§1) Disease severity={Σ(number of each index of diseased plants×disease index)/(number of plants surveyed×4)}×100
(§2) Disease control value={1−(treatment disease severity/control disease severity)}×100
(§3) 0: No adhesion of clubroot, 1: clubroot adhesion to lateral root, 2: clubroot adhesion to the entire lateral root or clubroot adhesion to a part of tap root, 3: adhesion of large clubroot to tap root, and 4: clubroot adhesion to the entire tap root.

[2] = system: Plasmodiophora brassicae; experiment: Cabbage clubroot control test, farm field (Example 2 / Comparative Example 2); set-up: key to Disease control value: control value = {1 − (treated severity/control severity)}×100; key to Disease severity: severity = Σ(plants×index 0–4)/(plants surveyed×4)×100; conditions: for Disease control value / Disease severity: 77 days after settled planting
Source text: as §1, §2, §3
A spore suspension of Plasmodiophora brassicae was sprayed on the entire farm field by using a watering pot to have a fungus density of 1×10^4 fungi/g dry soil. In this farm field, a cabbage (variety: Okina) seedling grown in a cell seedling tray (128 cells/seedling box) was settled-planted by establishing two plantings for each test section containing ten plants (interplant distance: 30 cm, interrow space: 30 cm, planting in two rows). Just after the settled planting, 4 days, 7 days and 11 days after settled planting, the chemical solution for spraying prepared by the same method as in Example 1(1) was drenched into the soil in a ratio of 250 ml/plant. Seventy-seven days after the settled planting, the number of each index of clubroot adhesion to the root was investigated. For comparison, the same test was carried out on a control section where a soil drench treatment with the chemical solution for spraying was not applied.
The test was carried out by the same method as in Example 2 except that in place of the soil drench treatment with the chemical solution for spraying, a chemical solution for spraying prepared by the same method as in Example 1(1) was sprayed on a cabbage (variety: Okina) seedling grown in a cell seedling tray (128 cells/seedling box) at a concentration of 2 liters/cell seedling tray by using a watering pot and these seedlings were settled-planted.
(§4) The disease severity and disease control value of Example 2 and Comparative Example 2 were determined by the same methods as in Example 1 and Comparative Example 1. In addition, the weight of cabbage in the aerial part was measured. Furthermore, the test result was shown by the average value of two plantings.

[3] = system: Plasmodiophora brassicae; experiment: Cabbage clubroot control test, pot test, cyazofamid vs chlorothalonil (Example 3 / Comparative Example 3); set-up: key to Disease control value: control value = (1 − treated/control severity) × 100; key to Disease severity: severity = Σ(plants × index 0-4)/(plants × 4) × 100; conditions: for Disease control value / Disease severity: 57 days after settled planting
Source text: as §1, §2, §3
A spore suspension of Plasmodiophora brassicae (fungus density: 1×10^5 fungi/g dry soil) was inoculated into a sterilization soil adjusted to pH of 6.0 with Sandoseto and after introducing the resulting test soil into a 1/5000 a pot, a cabbage (variety: Okina) seedling grown in a cell seedling tray (128 cells/seedling box) was settled-planted by establishing five plantings for each test section having a size of 0.02 m^2 for one plant. Immediately, 4 days, 7 days and 14 days after settled planting, the chemical solution for spraying prepared by the same method as in Example 1(1) was drenched into the soil in a ratio of 250 ml/plant. Fifty-seven days after the settled planting, the number of each index of clubroot adhesion to the root was investigated. For comparison, the same test was carried out on a control section where a soil drench treatment with the chemical solution for spraying was not applied.
A chemical solution for spraying in a concentration of 800 ppm was prepared by diluting 40% chlorothalonil (Daconil 1000 [trade name], manufactured by SDS K.K.) with water.
The test was carried out by the same procedure as in Example 3 except that the chemical solution (cyazofamid) for spraying was replaced by the chemical solution (chlorothalonil) for spraying prepared in Comparative Example 3(1).
as §4, with “3” for “2”, “five” for “two”

[4] = 50 ppm soil drench 250 ml/plant 3 days after settled planting
[5] = 50 ppm soil drench 250 ml/plant 7 days after settled planting
[6] = 50 ppm soil drench 250 ml/plant 10 days after settled planting
[7] = 50 ppm soil drench 250 ml/plant 14 days after settled planting
[8] = 50 ppm soil drench 250 ml/plant just after settled planting
[9] = 50 ppm soil drench 250 ml/plant 4 days after settled planting
[10] = 50 ppm soil drench 250 ml/plant 11 days after settled planting
[11] = 50 ppm solution sprayed on seedlings in cell tray, 2 liters/cell seedling tray, just before settled planting

With `Cc1ccc(-c2c(Cl)nc(C#N)n2S(=O)(=O)N(C)C)cc1` [cyazofamid, 4-chloro-2-cyano-1-dimethylsulfamoyl-5-(4-methylphenyl)imidazole] the “Weight in the aerial part” value [1, 4] was 156 g, the Disease control value [1, 4] was 75 and the Disease severity [1, 4] was 20. For the same molecule, the “Weight in the aerial part” value [1, 5] was 168 g, the Disease control value [1, 5] was 69 and the Disease severity [1, 5] was 25. The “Weight in the aerial part” value [1, 6] was 164 g, the Disease control value [1, 6] was 50 and the Disease severity [1, 6] was 40. For the same molecule, the “Weight in the aerial part” value [1, 7] was 163 g, the Disease control value [1, 7] was 31 and the Disease severity [1, 7] was 55. The “Weight in the aerial part” value [1, 8] was 164 g, the Disease control value [1, 8] was 81 and the Disease severity [1, 8] was 15. For the same molecule, the “Weight in the aerial part” value [2, 9] was 666 g, the Disease control value [2, 9] was 87 and the Disease severity [2, 9] was 7. For the same molecule, the “Weight in the aerial part” value [2, 5] was 579 g, the Disease control value [2, 5] was 30 and the Disease severity [2, 5] was 38. For the same molecule, the “Weight in the aerial part” value [2, 10] was 563 g, the Disease control value [2, 10] was 11 and the Disease severity [2, 10] was 48. For the same molecule, the “Weight in the aerial part” value [2, 8] was 713 g, the Disease control value [2, 8] was 44 and the Disease severity [2, 8] was 30. The “Weight in the aerial part” value [2, 11] was 745 g, the Disease control value [2, 11] was 44 and the Disease severity [2, 11] was 30. The “Weight in the aerial part” value [3, 9] was 109 g, the Disease control value [3, 9] was 81 and the Disease severity [3, 9] was 15. The “Weight in the aerial part” value [3, 5] was 109 g, the Disease control value [3, 5] was 88 and the Disease severity [3, 5] was 10. The “Weight in the aerial part” value [3, 7] was 91 g, the Disease control value [3, 7] was 0 and the Disease severity [3, 7] was 80. The “Weight in the aerial part” value [3, 8] was 104 g, the Disease control value [3, 8] was 100 and the Disease severity [3, 8] was 0. For the same molecule, the Control effect ([3]; 50 ppm soil drench, treatment within 7 days after settled planting) was “a control effect which was sufficient for practical use was obtained”.
